Experimental data taken from ChEMBL document CHEMBL3351488, “Design, synthesis and biological evaluation of novel arylpiperazine derivatives on human prostate cancer cell lines” (Bioorg Med Chem Lett, 2015).

Key:
[1] = Cytotoxicity against human PC3 cells assessed as inhibition of cell viability after 24 hrs by CCK-8 assay; format: functional, cell-based; details: PC-3, 24 h
LNCaP = experiment: Cytotoxicity against human LNCAP cells assessed as inhibition of cell viability after 24 hrs by CCK-8 assay; format: functional, cell-based
DU-145 = experiment: Cytotoxicity against human DU145 cells assessed as inhibition of cell viability after 24 hrs by CCK-8 assay; format: functional, cell-based; details: DU-145, 24 h
[2] = Cytotoxicity against human RWPE1 cells assessed as inhibition of cell viability after 24 hrs by CCK-8 assay; format: cell-based; details: RWPE-1, 24 h

## COc1ccccc1N1CCN(CC(O)COc2cccc3ccccc23)CC1 (centres undefined) [NAFTOPIDIL]
[1]
  IC50: 42.1 µM
LNCaP
  IC50: 22.4 µM
DU-145
  IC50: 34.6 µM
[2]
  IC50: > 50 µM

## COc1cc(OC)cc(OCc2ccc(CCN3CCN(c4ccccc4)CC3)cc2)c1
[1]
  IC50: 31.2 µM
LNCaP
  IC50: > 50 µM
DU-145
  IC50: 25 µM
[2]
  IC50: > 50 µM

## COc1cc(OC)cc(OCc2ccc(CCN3CCN(c4ccccc4OC)CC3)cc2)c1
[1]
  IC50: 26.5 µM
LNCaP
  IC50: 26.3 µM
DU-145
  IC50: 30.5 µM
[2]
  IC50: 28.8 µM

## COc1cc(OC)cc(OCc2ccc(CCN3CCN(c4cc(Cl)ccc4OC)CC3)cc2)c1
[1]
  IC50: 27.1 µM
LNCaP
  IC50: 39.8 µM
DU-145
  IC50: 26.7 µM
[2]
  IC50: > 50 µM

## COc1cc(OC)cc(OCc2ccc(CCN3CCN(c4ccccn4)CC3)cc2)c1
[1]
  IC50: 25.6 µM
LNCaP
  IC50: 42.3 µM
DU-145
  IC50: 16.8 µM
[2]
  IC50: > 50 µM

## COc1cc(OC)cc(OCc2ccc(CCN3CCN(c4cccc(Cl)c4)CC3)cc2)c1
[1]
  IC50: 30.9 µM
LNCaP
  IC50: 36.6 µM
DU-145
  IC50: 27.1 µM
[2]
  IC50: > 50 µM

## COc1cc(OC)cc(OCc2ccc(CCN3CCN(c4ccccc4F)CC3)cc2)c1
[1]
  IC50: 25.3 µM
LNCaP
  IC50: 7.25 µM
DU-145
  IC50: 25.4 µM
[2]
  IC50: 35.4 µM

## COc1cc(OC)cc(OCc2ccc(CCN3CCN(c4ccc(C(F)(F)F)cc4)CC3)cc2)c1
[1]
  IC50: 23.8 µM
LNCaP
  IC50: > 50 µM
DU-145
  IC50: 28.5 µM
[2]
  IC50: > 50 µM

## COc1cc(OC)cc(OCc2ccc(CCN3CCN(Cc4ccccc4)CC3)cc2)c1
[1]
  IC50: 6.79 µM
LNCaP
  IC50: 6.07 µM
DU-145
  IC50: 5.83 µM
[2]
  IC50: > 50 µM

## COc1cc(OC)cc(OCc2ccc(CCN3CCN(c4cc(C)ccc4C)CC3)cc2)c1
[1]
  IC50: 31 µM
LNCaP
  IC50: 36.1 µM
DU-145
  IC50: 27.6 µM
[2]
  IC50: > 50 µM

## CCOc1ccccc1N1CCN(CCc2ccc(COc3cc(OC)cc(OC)c3)cc2)CC1
[1]
  IC50: 27.1 µM
LNCaP
  IC50: > 50 µM
DU-145
  IC50: 27.2 µM
[2]
  IC50: > 50 µM

## COc1cc(OC)cc(OCc2ccc(CCN3CCN(c4cccc(C)c4)CC3)cc2)c1
[1]
  IC50: 30.6 µM
LNCaP
  IC50: 2.35 µM
DU-145
  IC50: 28.6 µM
[2]
  IC50: > 50 µM

## COc1cc(OC)cc(OCc2ccc(CCN3CCN(c4cc(Cl)ccc4C)CC3)cc2)c1
[1]
  IC50: 32.2 µM
LNCaP
  IC50: 2.73 µM
DU-145
  IC50: 28 µM
[2]
  IC50: 36.5 µM

## COc1cc(OC)cc(OCc2ccc(CCN3CCN(c4ccc(C#N)cc4)CC3)cc2)c1
[1]
  IC50: 27.6 µM
LNCaP
  IC50: > 50 µM
DU-145
  IC50: 46.3 µM
[2]
  IC50: 45.8 µM

## COc1cc(OC)cc(OCc2ccc(CCN3CCN(c4ccc(Cl)cc4)CC3)cc2)c1
[1]
  IC50: 18.9 µM
LNCaP
  IC50: > 50 µM
DU-145
  IC50: 12.7 µM
[2]
  IC50: > 50 µM

## COc1cc(OC)cc(OCc2ccc(CCN3CCN(c4ccc(F)cc4)CC3)cc2)c1
[1]
  IC50: 28.8 µM
LNCaP
  IC50: 35 µM
DU-145
  IC50: 28.2 µM
[2]
  IC50: > 50 µM

## COc1cc(OC)cc(OCc2ccc(CCN3CCN(c4ccc(Br)cc4)CC3)cc2)c1
[1]
  IC50: 25.6 µM
LNCaP
  IC50: > 50 µM
DU-145
  IC50: 29.5 µM
[2]
  IC50: > 50 µM

## COc1cc(OC)cc(OCc2ccc(CCN3CCN(c4ccccc4Cl)CC3)cc2)c1
[1]
  IC50: 25.2 µM
LNCaP
  IC50: 32.5 µM
DU-145
  IC50: 23.2 µM
[2]
  IC50: > 50 µM

## COc1cc(OC)cc(OCc2ccc(CCN3CCN(c4cccc(Cl)c4Cl)CC3)cc2)c1
[1]
  IC50: 18.4 µM
LNCaP
  IC50: > 50 µM
DU-145
  IC50: 30.2 µM
[2]
  IC50: 36.6 µM

## COc1cc(OC)cc(OCc2ccc(CCN3CCN(c4ccc(C)cc4)CC3)cc2)c1
[1]
  IC50: 48.2 µM
LNCaP
  IC50: 35.2 µM
DU-145
  IC50: 24.1 µM
[2]
  IC50: > 50 µM

## COc1ccc(N2CCN(CCc3ccc(COc4cc(OC)cc(OC)c4)cc3)CC2)cc1
[1]
  IC50: 32.9 µM
LNCaP
  IC50: > 50 µM
DU-145
  IC50: 19.2 µM
[2]
  IC50: > 50 µM

## COc1cc(OC)cc(OCc2ccc(CCN3CCN(c4ccccc4C(F)(F)F)CC3)cc2)c1
[1]
  IC50: 40.3 µM
LNCaP
  IC50: > 50 µM
DU-145
  IC50: 39.2 µM
[2]
  IC50: > 50 µM

## COc1cc(OC)cc(OCc2ccc(CCN3CCN(c4cccc(OC)c4)CC3)cc2)c1
[1]
  IC50: 25.3 µM
LNCaP
  IC50: 20 µM
DU-145
  IC50: 16.9 µM
[2]
  IC50: 39.9 µM

## COc1cc(OC)cc(OCc2ccc(CCN3CCN(c4ccc(F)cc4F)CC3)cc2)c1
[1]
  IC50: 35.4 µM
LNCaP
  IC50: > 50 µM
DU-145
  IC50: 24.2 µM
[2]
  IC50: > 50 µM

## COc1cc(OC)cc(OCc2ccc(CCN3CCN(c4ccccc4S(C)(=O)=O)CC3)cc2)c1
[1]
  IC50: 9.42 µM
LNCaP
  IC50: 0.97 µM
DU-145
  IC50: 7.68 µM
[2]
  IC50: > 50 µM

## COc1cc(OC)cc(OCc2ccc(CCN3CCN(c4ccccc4C)CC3)cc2)c1
[1]
  IC50: 30.2 µM
LNCaP
  IC50: 35.8 µM
DU-145
  IC50: 19.3 µM
[2]
  IC50: 35.6 µM
